Assay results reported in patent US6670481B2, “Oxiranecarboxylic acids for the treatment of diabetes” (Medicone AG Gesellschaft fur Molekularbiologische …, priority 1997, dated 2003).

Tests used:
Assay type in all cases: in vivo, rat (male Sprague-Dawley)
[1] = test system: insulin-resistant rats (after 24 hour fasting); assay: Blood glucose-lowering effect in insulin-resistant (24 hour fasted) rats; conditions: for (A) Glucose (%), change vs placebo-treated control animals: blood, rats fasted 24 hours, 2 hours after oral administration of 100 μmol/kg, mean of 10 animals; for Superiority compared to the prior art with respect to lowering glucose after fasting: fasting as experimental model of insulin resistance, result in words
Description: The compounds of the formula I according to the invention lower the glucose concentration in the blood of rats which have been made insulin-resistant by prolonged fasting.
(§1) What is stated are the changes in per cent of the animals which have been treated with substance, compared to control animals which were treated with placebo, calculated from the mean values of in each case 10 individual values.
(§2) The test animals used were male Sprague-Dawley rats from the SPF breed Ivanovas (Kisslegg, Germany) having a body mass of 255-400 g. The animals were kept in a conventional manner, 4 animals each in cages made of Makrolon (22×38 cm) in a climatized room (21-23 degrees Celsius) with a fixed day/night rhythm (7a.m/7p.m) and a regulated relative atmospheric humidity of 55-60%. The animals received a maintenance diet—Altromin 1320 from Altromin (Lage, Germany)—and water ad libitum.
To determine the effect of the substance on blood glucose, feed was withdrawn 24 hours before the administration of the substance to produce an insulin-resistant condition.
(§3) The animals were divided at random in 5 groups of 10 animals each and marked. The substances were administered to the animals in the form of a neutral, aqueous emulsion (1 part by weight of substance+2 parts by weight of Cremophor EL—an emulsifier from BASF AG, Germany—) in a volume of 10 ml/kg of body weight using a stomach tube.
To determine the glucose in the blood, 50 μl of blood were collected from the retrobulbular venousplexus 2 hours after the administration of the substance, using a glass capillary, from animals which had been fasting for 24 hours, and the blood was deproteinated in ice-cold perchloric acid (0.66 mol/l). After centrifugation, the glucose was determined in the supernatant using enzymatic standard methods.
Enzymatic test with hexokinase/[…], test combination from Boehringer Mannheim, Germany.

fed, healthy rats [2] = assay: Triglyceride-lowering effect in blood plasma of fed, healthy rats; conditions: for (B) Triglycerides (%), change vs placebo-treated control animals: blood plasma, fed healthy rats, oral 100 μmol/kg for 16 days, 24 hours after last administration, mean of 10
Description: as §1, §2, §3
(§4) To determine the parameters triglycerides, cholesterol and the activity of the glutamic-pyruvic transaminase (GPT), blood plasma was used. The blood plasma was obtained as an erythrocyte-free supernatant 15 minutes after venous blood sampling into heparinized Eppendorf reaction vessels by centrifugation (2×2 minutes at 16,000 rpm in an Eppendorf centrifuge).
Enzymatic test with lipase/glycerokinase, test combination from Boehringer Mannheim, Germany.

fed, healthy rats [3] = assay: Cholesterol-lowering effect in blood plasma of fed, healthy rats; conditions: oral 100 μmol/kg for 16 days, 24 hours after last administration, mean of 10
Description: as §1, §2, §3, §4
Enzymatic colour test (CHOD-PAP method), test combination from Boehringer Mannheim, Germany.

healthy, fed rats [4] = assay: Increase in activity of liver enzyme glutamic-pyruvate transaminase (GPT) in blood plasma; conditions: oral equimolar doses for 16 days, 24 hours after last administration
Text: as §2, §3, §4
Kinetic enzyme test, test combination from Boehringer Mannheim, Germany.

healthy, fed rats [5] = assay: Increase of relative weight of the heart (cardiac hypertrophy); conditions: weight of heart/100 g body weight, oral equimolar doses for 16 days, 24 hours after last administration
Text: as §2, §3
The animals were killed by decapitation and exsanguination, and the weight of the heart muscle, which had been freed from the right atrium, was determined by weighing and based on 100 g of body. weight.

healthy, fed rats [6] = assay: Pharmacological safety index; conditions: for (C) Safety index (%): lowering of glucose + triglycerides + cholesterol in per cent divided by increase of GPT activity + relative heart weight in per cent, higher = safer; for Safety index compared to the prior art: result in words, from Table 2
Text: The higher the index, the greater the safety of the substance.

SMILES	(A) Glucose (%), change vs placebo-treated control animals [1]	(B) Triglycerides (%), change vs placebo-treated control animals (fed, healthy rats [2])	(C) Cholesterol (%), change vs placebo-treated control animals (fed, healthy rats [3])	(A) GPT activity (%), increase (healthy, fed rats [4])	(B) Relative weight of the heart (%), increase (healthy, fed rats [5])	(C) Safety index (%) (healthy, fed rats [6])	Superiority compared to the prior art with respect to lowering glucose after fasting [1]	Effect compared to the prior art, taking into account the triglyceride- and cholesterol-lowering effect (fed, healthy rats [2]; result in words, from Tab. 1)	Safety index compared to the prior art (healthy, fed rats [6])
CCOC(=O)C1(CCCCCCOc2ccc(Cl)cc2)CO1 (stereo not drawn) [Substance 1]	−18%	−50%	−15%	8%	14%	3.77%			
CCOC(=O)C1(CCCCCOc2ccc(OC(F)F)cc2)CO1 (stereo not drawn) [Substance 3]	−27%	−73%	−26%	12%	11%	5.48%	particularly pronounced	superior to the prior art	superior to the prior art
CCOC(=O)C1(CCCCCOc2ccc(C(C)=O)cc2)CO1 (stereo not drawn) [Substance 4]	−7%	−41%	−8%	−9%	−2%	56%			particularly superior to the prior art
CCOC(=O)C1(CCCCCCOc2ccc(OC(F)F)cc2)CO1 (stereo not drawn) [Substance 2]	−27%	−69%	−13%	5%	14%	5.74%	particularly pronounced		superior to the prior art
